“And” between values parts separate entries of the source, which are not always exact repeats. Equal entries are not always repeated.
Legend:
pig manure slurry [1] = assay: total ammoniacal nitrogen (Kjeldahl) in fresh pig manure slurry
Procedure: (§1) Total ammoniacal nitrogen (TAN) was measured in pig manure slurry using the Kjeldahl method. This method consists of adding 32% NaOH to the manure slurry sample in order to turn all NH4^+ in the sample to NH3. The sample is then heated in a closed system causing the NH3 to evaporate into a trap containing H3BO3 forming NH4[B(OH)4]. The remaining acid is then back-titrated with dilute HCl to give the concentration.
(§2) The pig manure slurry was made fresh on the day of measurement by mixing 10 g of feces with 30 ml of urine. Vials of approximately 4.5 ml of manure slurry were prepared. To each vial 0.5 ml of appropriate amounts of inhibitors were added. Controls were vials of 4.5 ml manure slurry with 0.5 ml H2O. After mixing inhibitors and pig manure slurry the vials were sealed and incubated at 25° C. with shaking for 5 h. After incubation, the ureolysis reaction was rapidly quenched by addition of 8 ml 32% NaOH before the sample was transferred to the Kjeldahl instrument for measurements.
as §1, with “the manure sample in” for “the manure slurry sample in”
as §2, with “of either 30 mM TA and 10 mM NaF or 50 mM TA and 10 mM NaF was added. Vials containing 0.5 ml” for “of appropriate amounts”, “of either 51 mg/ml MTA (equal to 30 mM TA on a mass basis) or 85 mg/ml MTA (equal to 50 mM TA on a mass basis) with 10 mM TA and 10 mM NaF” for “of inhibitors”, “were also prepared.” for “were added.”, “ml H2O or 10 mM NaF.” for “ml H2O.”
The pig manure slurry was made fresh on the day of measurement by mixing 10 g of feces with 30 ml of urine. Manure separation was simulated by mixing 10 g of feces with 60 ml of urine for a ratio of 1:6 w:V.
For the “normal” ratio or unseparated manure slurry (1:3) 4.5 ml manure was placed in vials. Then 0.5 ml of TA (50 mM) and NaF (10 mM) were added to the manure slurry. For the separated manure slurry (1:6) 4.5 ml were mixed with 0.5 ml of TA (25 mM) and NaF (10 mM).
Controls were vials of 4.5 ml manure slurry with 0.5 ml H2O at either 1:3 or 1:6 w:V ratios of feces:urine. After mixing inhibitors and pig manure slurry the vials were sealed and incubated at 25° C. with shaking for 5 h. After incubation, the ureolysis reaction was rapidly quenched by addition of 8 ml 32% NaOH before the sample was transferred to the Kjeldahl instrument for measurements.
Tannic acid (TA), sodium fluoride (NaF), chlorogenic acid (CA), lignosulfonic acid (LA), lignin (L), chitosan low molecular weight (CLMW), NaOH, HCl and H3BO3 were purchased from Sigma-Aldrich. The mixed tannins (75% tannins) used in this study (VINOFERM TANNOROUGE) were purchased from Brouwland. The product contains tannins from chestnut. The green tea extract was purchased from Slimming Labs (Groeningen, Netherlands) and consists of 90% polyphenols of which 40% are epigallocatechin gallate. Total ammoniacal nitrogen (TAN) was measured in pig manure slurry using the Kjeldahl method as described in example 2 and example 7. The various compounds were tested as described for MTA in example 7 using appropriate concentrations.
Initial screenings were done in duplicate and the results are given as the average of the two measurements with no standard deviation (SD). […]

Klebsiella pneumoniae = assay: pH-based urease activity assay, pure K. pneumoniae culture in M9U minimal medium; type: cell-based, Klebsiella pneumoniae subsp. pneumoniae; conditions: for Reduction in ureolytic activity: pure K. pneumonia culture
Procedure: (§3) The urease stock was stored at −20° C.
All M9U components except glucose, urea, FeCl2, ZnSO4, and vitamins were mixed, the pH adjusted to 6.8 and the medium was autoclaved. Glucose, urea, FeCl2, ZnSO4, and BME Vitamin solution were sterile-filtered and added aseptically after autoclaving. Urea was added within 24 h before the medium was used.
(§4) The assay consists of a buffered urea solution containing the pH indicator phenol red and the inhibitor to be tested. […] Each compound was screened at three concentrations (10×, 100× and 1000× dilutions of the stock) in triplicate against K. pneumoniae and purified JBU. To this solution ureolytic bacteria or urease is added and the solution is incubated in a plate reader which every 15 minutes measure the absorbance at 557 nm and 630 nm (A557 and A630). Thus, inhibitor and bacteria/urease was not pre-incubated. For microbial urease activity experiments, K. pneumoniae and E. coli were grown overnight in the respective growth media. […] To each well 80 μl bacterial suspension, 100 μl growth media, and 20 μl inhibitor solution was added. Increase in absorbance at 557 nm reflects increasing pH (until saturation of the indicator at pH 8.2) and increase in absorbance at 630 nm reflects bacterial growth (optical density). In the case of ureolytic bacteria or enzymes in urea solution the increase in pH can be ascribed to the production of alkaline NH3. […] In the bacterial assay inhibitors were evaluated based on three parameters: maximal or final pH increase, onset of pH increase and rate of pH increase. The relative maximal pH increase was determined as pHmax=A557-A630. The onset of the pH increase was defined as the point where the ureolytic production of NH3 overcame the buffer capacity resulting in a colour change of the phenol red indicator measured as an absorbance increase at 557 nm. […] For each inhibitor the influence on the bacterial growth was also evaluated by identifying the end of the lag phase (onset of exponential growth), the growth rate and the maximal OD630.

jack bean urease = biological target: T1, jack bean urease (Canavalia ensiformis, UniProt P07374); assay: cell-free urease activity assay (pH-based); type: biochemical
T1 construct: purchased Sigma-Aldrich
Procedure: as §3, §4
In urease inhibition assays 5 μl enzyme solution, 175 μl growth media, and 20 μl inhibitor solution were added.

pig manure slurry [2] = assay: headspace ammonia emissions from pig manure slurry (PTR-MS); conditions: Tannic acid 10 mM; cumulated headspace emission, 22-24° C.
Procedure: Ammonia emissions were measured in headspace experiments at ambient temperature (22-24° C.). Pig urine (30 ml) and 10 g of frozen pig feces were thawed and added to each of nine 100 mL reactors and mixed with tannic acid and sodium fluoride in different concentrations. Tannic acid and sodium fluoride was purchased from Sigma-Aldrich. A flow of 0.5 L±10% air/min was continuously applied to the headspace of each reactor with mass flow controllers (Bronkhorst EL-FLOW, Ruurlo, Netherlands). The air flow carried the emitted ammonia from the pig manure slurry in the reactors to a proton transfer reaction mass spectrometer (PTR-MS) (Ionicon Analytik, Innsbruck, Austria) for quantification. A PEEK valve (Bio-Chem Valve Inc., Boonton, NJ, USA) was used to switch between the nine reactors every 12 min. The PTR-MS was operated at a reduced electric field of 142 Townsend (2.15 mbar and 75° C. in the drift tube). Every 24 h, 3 ml of pig urine and 1 g of pig feces was thawed and supplemented to the reactors. Tannic acid and sodium fluoride was also supplemented every 24 h to maintain a constant inhibitor concentration in the manure. For acidification treatment, the manure slurry was acidified with H2SO4 to pH 5.5 every 24 h. The gas emissions were monitored continuously for 12 days. […]

[3] = tested on: 12 days old pig manure slurry; assay: methane production in anaerobic inoculum flasks (GC-FID); conditions: 10 mM TA alone, 3 weeks
Procedure: This was done by transferring the TA-NaF treated manure slurry used in example 3 to 100 mL inoculum flasks on day 12. The manure slurry was weighed before inoculation and the headspace was flushed with helium (Linde Group) prior to encapsulation. Gas from the headspace of the inoculum flasks was sampled into 6 mL vacuum sealed exetainer vials (Labco Limited, Lampeter, UK) every week the following three weeks and stored for later CH4 analysis on a GC-FID. After sampling from the inoculum flasks, the pressure in the headspace was equalized with a needle.

[4] = weak acidity due to the numerous phenol groups; cited from earlier work

T1 sequence (P07374 whole entry, looked up): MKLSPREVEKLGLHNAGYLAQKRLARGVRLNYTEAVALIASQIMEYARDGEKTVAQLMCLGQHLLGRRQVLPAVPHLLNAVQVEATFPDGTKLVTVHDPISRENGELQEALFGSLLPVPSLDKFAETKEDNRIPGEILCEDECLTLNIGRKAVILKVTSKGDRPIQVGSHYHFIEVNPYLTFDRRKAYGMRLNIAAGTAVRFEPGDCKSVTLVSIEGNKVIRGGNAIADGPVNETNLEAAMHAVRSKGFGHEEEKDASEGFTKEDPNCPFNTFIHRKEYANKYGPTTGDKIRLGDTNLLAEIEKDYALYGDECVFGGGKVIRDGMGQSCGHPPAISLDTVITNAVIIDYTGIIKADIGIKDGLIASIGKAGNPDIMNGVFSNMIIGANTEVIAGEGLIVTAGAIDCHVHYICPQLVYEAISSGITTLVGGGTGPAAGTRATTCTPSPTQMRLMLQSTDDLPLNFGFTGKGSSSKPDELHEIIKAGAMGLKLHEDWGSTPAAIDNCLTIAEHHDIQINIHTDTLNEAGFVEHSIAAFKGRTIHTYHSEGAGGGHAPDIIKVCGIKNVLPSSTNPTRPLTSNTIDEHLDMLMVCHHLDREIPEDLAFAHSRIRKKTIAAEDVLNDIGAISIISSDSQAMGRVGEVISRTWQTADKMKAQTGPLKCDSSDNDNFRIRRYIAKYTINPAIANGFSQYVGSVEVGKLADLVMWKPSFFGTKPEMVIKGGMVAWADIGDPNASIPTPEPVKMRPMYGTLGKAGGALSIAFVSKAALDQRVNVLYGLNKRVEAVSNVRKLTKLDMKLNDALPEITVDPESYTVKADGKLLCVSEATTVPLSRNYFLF

O=C1C=CC(=O)N1c1ccccc1 [N-phenylmaleimide]
Reduction in ammonia production (pig manure slurry [1]; N-phenylmaleimide 3.9 mM, pig manure slurry, 25° C., 5 h): 59%

O=C(O)CNCC(=O)O [Iminodiacetic acid]
Reduction in ammonia production (pig manure slurry [1]; Iminodiacetic acid 0.8 mM, pig manure slurry, 25° C., 5 h): 19%

NCCS [Cysteamine]
Reduction in ammonia production (pig manure slurry [1]; Cysteamine 1 mM, pig manure slurry, 25° C., 5 h): 25%

O=C(/C=C/c1ccc(O)c(O)c1)O[C@@H]1C[C@](O)(C(=O)O)C[C@@H](O)[C@H]1O [CA, chlorogenic acid]
Reduction in ammonia production (Mean ± SD) (pig manure slurry [1]; CA 5 mM (2.3 mg/ml), pig manure slurry, duplicate, no SD): 6%

O=C(OC[C@H]1O[C@@H](OC(=O)c2cc(O)c(O)c(OC(=O)c3cc(O)c(O)c(O)c3)c2)[C@H](OC(=O)c2cc(O)c(O)c(OC(=O)c3cc(O)c(O)c(O)c3)c2)[C@@H](OC(=O)c2cc(O)c(O)c(OC(=O)c3cc(O)c(O)c(O)c3)c2)[C@@H]1OC(=O)c1cc(O)c(O)c(OC(=O)c2cc(O)c(O)c(O)c2)c1)c1cc(O)c(O)c(OC(=O)c2cc(O)c(O)c(O)c2)c1 [Tannic acid, tannic acid]
inhibition at 1000 µM (Klebsiella pneumoniae; Klebsiella pneumoniae, 1.0 mM, read-out: reduction of ureolytic activity (pH change) relative to uninhibited control): 21.3 ± 1.3%
Reduction in ureolytic activity (Klebsiella pneumoniae; TA 0.05 mM, listed as TA): 16% and 16 ± 5%
Reduction in ureolytic activity (Klebsiella pneumoniae; TA 0.1 mM): 9.4 ± 3%
Reduction in ureolytic activity (Klebsiella pneumoniae; TA 0.2 mM): 3.9 ± 6%
inhibition of ureolytic activity (Klebsiella pneumoniae; tannic acid 0-0.8 mM alone): 0-12%
ureolytic pH change compared to the uninhibited control (FIG. 5) (Klebsiella pneumoniae; tannic acid alone up to 0.8 mM): does not reduce the pH change significantly
pH change (reduced to) (jack bean urease; 0.1 mM): 0
Reduction in ammonia production (Mean) (pig manure slurry [1]; TA 3 mM, pig manure slurry (Example 11)): 0 ± 4%
Reduction in ammonia production (Mean ± SD) (pig manure slurry [1]; TA 5 mM (8.5 mg/ml), pig manure slurry (Example 10)): 18 ± 1.3%
Reduction in ammonia production (Mean) (pig manure slurry [1]; TA 5 mM, pig manure slurry (Example 11)): 18 ± 1.3%
Reduction in ammonia production (pig manure slurry [1]; Tannic acid 10 mM, pig manure slurry, 25° C., 5 h (Example 2)): 17.6%^
Reduction in ammonia production (pig manure slurry [1]; in solution, Tannic acid 5 mM, pig manure slurry, 25° C., 5 h (Example 3)): 17.6%
Reduction in ammonia production (pig manure slurry [1]; in solution, Tannic acid 10 mM, pig manure slurry, 25° C., 5 h (Example 3)): 35.2%
Reduction in ammonia emissions, 12 days (pig manure slurry [2]): 88.4%
methane production, % of the uninhibited control (FIG. 3B) [3]: 0.01%
pKa [4]: around 6

[F-].[Na+] [NaF, sodium fluoride]
inhibition of ureolysis (Klebsiella pneumoniae; 0.3 mM fluoride alone): 14.7%
ureolytic activity (pH change) relative to the uninhibited control (Klebsiella pneumoniae; 1.0 mM): 0
reduction of pH change (FIG. 5) (Klebsiella pneumoniae; NaF 0.3 mM): 12-15%
reduction in initial rate of pH change (jack bean urease; 1.0 mM): 89.4±1.0%
reduction of pH change (jack bean urease; 1.0 mM): 80.6±3.0%
Reduction in concentration of NH3 (pig manure slurry [1]; 1 mM NaF, pig manure slurry, 25° C., 5 h (Example 7)): 17.7 ± 4%.
Reduction in ammonia production (Mean ± SD) (pig manure slurry [1]; NaF 1 mM, pig manure slurry (Example 10)): 9 ± 1.0%
Reduction in ammonia production (Mean) (pig manure slurry [1]; NaF 1 mM, pig manure slurry (Example 11)): 9 ± 1.0%
Reduction in ammonia production (pig manure slurry [1]; NaF 1 mM, pig manure slurry, 25° C., 5 h (Example 2)): 24%
Reduction in ammonia production (pig manure slurry [1]; in solution, NaF 1 mM, pig manure slurry, 25° C., 5 h (Example 3)): 8.6%

CC(=O)NO [AHA, acetohydroxamic acid]
Reduction in ureolytic activity (Klebsiella pneumoniae; AHA 0.2 mM): 14 ± 6%
Reduction in ammonia production (Mean) (pig manure slurry [1]; AHA 0.5 mM, pig manure slurry): 14% and 14 ± 2.3%
Reduction in ammonia production (Mean) (pig manure slurry [1]; AHA 1 mM, pig manure slurry): 24 ± 3.4%
